{
  "source": "ChEMBL document CHEMBL6182898",
  "about": "“Design, synthesis and bioevaluation of novel hydrazide derivatives as enhancers of immunotherapy and DNA-damage response in antitumor therapy” (Eur J Med Chem, 2025)",
  "key": {"[1]": {"target": "Programmed cell death 1 ligand 1 (Mus musculus, UniProt Q9EP73)", "sequence (Q9EP73 whole entry)": "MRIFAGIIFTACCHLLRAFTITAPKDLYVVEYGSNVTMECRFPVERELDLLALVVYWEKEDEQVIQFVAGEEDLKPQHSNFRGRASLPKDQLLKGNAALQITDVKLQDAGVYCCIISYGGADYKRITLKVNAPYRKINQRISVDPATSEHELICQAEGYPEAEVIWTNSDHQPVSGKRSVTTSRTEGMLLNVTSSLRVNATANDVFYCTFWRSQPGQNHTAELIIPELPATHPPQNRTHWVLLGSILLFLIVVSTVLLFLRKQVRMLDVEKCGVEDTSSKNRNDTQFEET", "assay": "Induction of PD-L1 degradation in mouse B16-F10 cells incubated for 24 hrs by Western blot analysis", "format": "cell-based"}, "[2]": {"target": "Programmed cell death 1 ligand 1 (Mus musculus) (UniProt Q9EP73)", "sequence (Q9EP73 whole entry)": "as above", "assay": "Induction of PD-L1 degradation in mouse B16-F10 cells at 5 uM incubated for 24 hrs in presence of Bafilomycin A1 by Western blot analysis", "format": "cell-based"}, "4T1 [3]": {"tested_on": "4T1", "assay": "Synergistic induction of DNA damage in mouse 4T1 cells assessed as increase in gamma-H2AX level at 1 uM incubated for 24 hrs in presence of Olaparib by Western blot analysis", "format": "functional, cell-based"}, "[4]": {"assay": "AUC (0 to t) in male Sprague-Dawley rat at 2 mg/kg, iv measured for 0.083 to 12 hrs by LC-MS/MS analysis", "format": "ADME, organism-based", "details": "in vivo, time 0.083-12 hrs"}, "[5]": {"assay": "MRT (0 to t) in male Sprague-Dawley rat at 2 mg/kg, iv measured for 0.083 to 12 hrs by LC-MS/MS analysis", "format": "ADME, organism-based", "details": "in vivo, time 0.083-12 hrs"}, "[6]": {"assay": "MRT (0 to infinity) in male Sprague-Dawley rat at 2 mg/kg, iv measured for 0.083 to 12 hrs by LC-MS/MS analysis", "format": "ADME, organism-based", "details": "in vivo, time 0.083-12 hrs"}, "[7]": {"assay": "AUC (0 to t) in male Sprague-Dawley rat at 20 mg/kg, po measured for 0.083 to 12 hrs by LC-MS/MS analysis", "format": "ADME, organism-based", "details": "in vivo, time 0.083-12 hrs"}, "[8]": {"assay": "VRT (0 to infinity) in male Sprague-Dawley rat at 20 mg/kg, po measured for 0.083 to 12 hrs by LC-MS/MS analysis", "format": "ADME, organism-based", "details": "in vivo, time 0.083-12 hrs"}, "[9]": {"assay": "Clast in male Sprague-Dawley rat at 20 mg/kg, po measured for 0.083 to 12 hrs by LC-MS/MS analysis", "format": "ADME, organism-based", "details": "in vivo, time 0.083-12 hrs"}, "[10]": {"assay": "Half life in male Sprague-Dawley rat at 20 mg/kg, po measured for 0.083 to 12 hrs by LC-MS/MS analysis", "format": "ADME, organism-based", "details": "in vivo, time 0.083-12 hrs"}, "B16-F10 [11]": {"tested_on": "B16-F10", "assay": "Antitumor activity against mouse B16-F10 cells implanted in male C57BL/6J mouse at 25 mg/kg, IG treated for 14 days consecutively in presence of NP-19 relative to control", "format": "functional", "details": "B16-F10, po, 336 h, time 14 day, read-out: TGI"}, "[12]": {"assay": "Toxicity in male C57BL/6J mouse implanted with mouse B16-F10 cells assessed as histopathological damage in liver at 50 mg/kg, IG treated for 14 days consecutively by H and E staining based analysis", "format": "organism-based", "details": "in vivo, po, 336 h, time 14 day"}, "[13]": {"assay": "Toxicity in male C57BL/6J mouse implanted with mouse B16-F10 cells assessed as histopathological damage in heart at 25 mg/kg, IG treated for 14 days consecutively in presence of NP-19 by H and E staining based analysis", "format": "organism-based", "details": "in vivo, po, 336 h, time 14 day"}, "[14]": {"assay": "Toxicity in male C57BL/6J mouse implanted with mouse B16-F10 cells assessed as histopathological damage in kidney at 25 mg/kg, IG treated for 14 days consecutively in presence of NP-19 by H and E staining based analysis", "format": "organism-based", "details": "in vivo, po, 336 h, time 14 day"}, "B16-F10 [15]": {"tested_on": "B16-F10", "assay": "Induction of antitumor immunity in mouse B16-F10 cells implanted in male C57BL/6J mouse assessed as CD3+CD8+ T cell infiltration at 50 mg/kg, IG treated for 14 days consecutively by flow cytometry (reference value: 10 %)", "format": "functional", "details": "time 14 day"}, "B16-F10 [16]": {"tested_on": "B16-F10", "assay": "Induction of antitumor immunity in mouse B16-F10 cells implanted in male C57BL/6J mouse assessed as CD3+CD8+ T cell infiltration at 25 mg/kg, IG treated for 14 days consecutively in presence of NP-19 by flow cytometry (reference value: 10 %)", "format": "functional", "details": "time 14 day"}, "Mus musculus": {"tested_on": "Mus musculus", "assay": "Effect on Ac-alpha-tubulin in mouse B16-F10 cells implanted in male C57BL/6J mouse at 50 mg/kg, IG treated for 14 days consecutively by Western blot analysis", "format": "functional, organism-based", "details": "time 14.0 day"}, "[17]": {"target": "T1, Histone deacetylase 3 (Mus musculus) (UniProt O88895)", "T1 sequence (whole entry)": "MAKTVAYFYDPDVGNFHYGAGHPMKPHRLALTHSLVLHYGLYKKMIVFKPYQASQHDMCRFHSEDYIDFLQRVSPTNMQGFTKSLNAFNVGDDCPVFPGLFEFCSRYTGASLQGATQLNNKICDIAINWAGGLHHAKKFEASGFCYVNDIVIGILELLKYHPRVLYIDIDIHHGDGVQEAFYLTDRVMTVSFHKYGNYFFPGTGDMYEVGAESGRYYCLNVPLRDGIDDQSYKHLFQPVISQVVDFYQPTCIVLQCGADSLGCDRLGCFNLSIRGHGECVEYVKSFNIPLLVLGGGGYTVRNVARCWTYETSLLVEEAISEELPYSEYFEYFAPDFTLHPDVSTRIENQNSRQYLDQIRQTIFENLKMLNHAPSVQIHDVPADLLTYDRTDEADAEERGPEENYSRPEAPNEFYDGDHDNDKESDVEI", "assay": "In vivo inhibition of HDAC3 in mouse B16-F10 cells implanted in male C57BL/6J mouse assessed as increase in Ac-H3 level at 50 mg/kg, IG treated for 14 days consecutively by immunofluorescence based analysis", "format": "functional, organism-based", "details": "time 14.0 day"}, "4T1 [18]": {"tested_on": "4T1", "assay": "Synergistic antitumor activity against mouse 4T1 cells implanted in mouse at 25 mg/kg/day in presence of olaparib relative to control", "format": "functional", "details": "read-out: TGI"}, "4T1 [19]": {"tested_on": "4T1", "assay": "Induction of DNA damage in mouse 4T1 cells implanted in mouse assessed as decrease in PARP level at 50 mg/kg/day by Western blot analysis", "format": "functional, organism-based"}, "4T1 [20]": {"tested_on": "4T1", "assay": "Synergistic induction of DNA damage in mouse 4T1 cells implanted in mouse assessed as decrease in PARP level at 25 mg/kg/day in presence of olaparib by IHC analysis", "format": "functional, organism-based"}, "4T1 [21]": {"tested_on": "4T1", "assay": "Synergistic induction of DNA damage in mouse 4T1 cells implanted in mouse assessed as increase in gamma-H2AX level at 25 mg/kg/day in presence of olaparib by IHC analysis", "format": "functional, organism-based"}},
  "note": "Activity calls are given as the source filed them. The calls are words filed in the database; no cut-off is given here.",
  "data": [
    {"compound": "CCCNNC(=O)CCCCCCNC(=O)c1cnc(-c2ccc(NC(=O)OC(C)(C)C)cc2)s1", "values": [
      {"measurement": "DC50", "setting": "[1]", "value": 4.17, "unit": "µM"},
      {"measurement": "Activity", "setting": "[2]", "value": "inactive"},
      {"measurement": "Activity", "setting": "4T1 [3]", "value": "Active"},
      {"measurement": "AUC(0-t)", "setting": "[4]", "value": 657, "unit": "ng·h/mL"},
      {"measurement": "MRT last", "setting": "[5]", "value": 20.4, "unit": "min"},
      {"measurement": "MRT inf", "setting": "[6]", "value": 22.2, "unit": "min"},
      {"measurement": "AUC(0-t)", "setting": "[7]", "value": 30.8, "unit": "ng·h/mL"},
      {"measurement": "VRT", "setting": "[8]", "value": 14.7, "unit": "h²"},
      {"measurement": "Clast", "setting": "[9]", "value": 0.27, "unit": "ng/mL"},
      {"measurement": "half-life", "setting": "[10]", "value": 170, "unit": "min"},
      {"measurement": "inhibition in vivo at 25 mg/kg", "setting": "B16-F10 [11]", "value": 65, "unit": "%"},
      {"measurement": "Activity", "setting": "[12]", "value": "Non-toxic"},
      {"measurement": "Activity", "setting": "[13]", "value": "Non-toxic"},
      {"measurement": "Activity", "setting": "[14]", "value": "Non-toxic"},
      {"measurement": "Activity", "setting": "B16-F10 [15]", "value": 22, "unit": "%"},
      {"measurement": "Activity", "setting": "B16-F10 [16]", "value": 38, "unit": "%"},
      {"measurement": "Activity", "setting": "Mus musculus", "value": "No effect"},
      {"measurement": "inhibition", "setting": "[17]", "value": "Active"},
      {"measurement": "inhibition in vivo at 25 mg/kg/day", "setting": "4T1 [18]", "value": 88, "unit": "%"},
      {"measurement": "Activity", "setting": "4T1 [19]", "value": "Active"},
      {"measurement": "Activity", "setting": "4T1 [20]", "value": "Active"},
      {"measurement": "Activity", "setting": "4T1 [21]", "value": "Active"}
    ]}
  ]
}
